{
  "source": "patent EP0442962B1",
  "about": "“LIPOSOMAL RADIOLOGIC CONTRAST AGENTS” (UNGER, Evan C, priority 1988, dated 1990)",
  "key": {"Male buffalo rats": {"test_system": "Male buffalo rats", "test": "In vivo MR contrast enhancement (signal intensity pre and post contrast), Example 3", "details": "for Liver + Muscle (ratio of liver enhancement to muscle enhancement) / Liver enhancement / Muscle enhancement (paraspinal muscle): scans 30 min after I.V. injection", "procedure": "All in vivo imaging was performed on a Siemens 1.5 Tesla magnet (Iselin, N.J.). Spin echo technique was utilized for both T1- and T2-weighted imaging. T1-weighted sequences utilized parameters TR/TE: 400 msec/16 msec, 4 acquisitions, 256 x 256 matrix 16 cm field view for 2 mm thick slices. For T1 calculations, images were acquired using a fixed TE of 28 msec with TR varying from 300, 500, 1500 and 3500 msec. For T2 calculations a fixed TR of 3500 msec was used with TE values of 28, 45, 70, 90 and 150 msec. T1 and T2 calculations were preformed using the software on the Magnetom System (Iselin, N.J.) by selecting a region of interest on the CRT monitor.\nMale buffalo rats, weighing approximately 450 grams, were scanned using a 7.5 cm circular surface coil. The animals were scanned in the supine position, and signal intensities of liver, paraspinal muscle, kidney, renal pelvis, bladder and vascular structures were measured pre and post contrast. Rats were imaged pre and post contrast injection of either 0.4 µ Gd-DTPA liposomes (8 rats) or free Gd-DTPA (2 rats).\nInjections of the 0.4 µ liposomes prepared in Example 1 were performed by tail vein injection using a 26 gauge butterfly needle. Gd-DTPA liposomes were injected over a period of approximately two minutes; liposomes were diluted with an equal volume of normal saline immediately prior to injection."}, "Hepatic Metastases": {"test_system": "Hepatic Metastases", "test": "Blind study detection of hepatic metastases on MR images pre and post contrast by 5 radiologists, Example 7", "assay_type": "in vivo, rat", "details": "for Accuracy Post: includes adjustment for false positives; for #Post (number of metastases detected on Post contrast scans): one rat per dose, 5 radiologists; for Sensitivity Post: percentage of lesions detected on Post contrast scans", "description": "The cell line employed, C5, is a clonal derivative of a rat liver epithelial cell line initially derived from the livers of newborn Fisher rats and subsequently transformed in vitro by transfection with a plasmid containing the T24ras gene driven by the mouse metallothionein promotor. See, Li et al., P.N.A.S., Vol. 35, pp. 344 (1988); Reynolds et al., Oncogene, Vol. 323, pp. 323-330 (1987).\nThe tumors used in this study were generated by injecting 3 x 10⁵ cells into the superficial lobe of rat livers. Three separate injections of 10⁵ cells were made within an approximate area of 0.5 cm² under direct visualization. The tumors were allowed to grow for 14 to 17 days before imaging followed by sacrifice.\nMR imaging was performed on a whole body 1.5 T Siemens Magnetom (Erlangen, West Germany) using a 15 cm Helmholtz receive only coil. Spin echo technique was used with TR/TE of 400 msec/17 msec, 2 mm slices with 4 acquisitions. Images were obtained pre and post contrast in both axial and coronal planes with post contrast images obtained from 5 to 60 minutes post contrast.\nRats were lightly sedated with ether and then fully sedated with I.P. Ketamine/Rompun 0.10 ml/100 g body weight. Contrast injections were performed by tail vein over two minutes with volume approximately 0.5 ml. Doses were as follows: free Gd-DTPA 0.5 and 0.2 mM/kg, 400 nm Gd-DTPA liposomes 0.5, 0.2 and 0.1 mM/Kg and 70 nm Gd-DTPA liposomes 0.5 and 0.2 mM/Kg with one rat injected with each dose.\nPre and post contrast images were separated and, in a blind study, five radiologists experienced in interpreting MR and oncologic imaging were given the MR images to interpret. The MR scans were presented to the radiologists randomly without knowledge of path findings or contrast agent used. The radiologists were instructed to count the number of metastases, plot lesion locations and measure lesion size. The number and sizes of lesions detected were then correlated with the histologic sections and the true number of metastases detected was determined for pre and post contrast scans. The Mann-Whitney test was used to test for statistical significance of results for lesion detection pre and post contrast.\nImmediately after imaging, the rats were sacrificed by ether overdose and the livers removed and fixed in 10% formalin. The gross liver specimens were photographed and sectioned in the coronal plant at 2 mm intervals. The number of lesions were counted and size of lesions were measured to correlate with findings on MR images. Microscopic sections were prepared using hematoxylin and eosin stain and studied with light microscopy."}, "[1]": {"test": "In vitro relaxivity from phantom imaging at 1.5 Tesla, Example 4", "assay_type": "physicochemical", "details": "phantoms in PBS, T1", "procedure": "Phantoms were prepared by diluting the vesicle preparation with Dulbecco's phosphate buffered saline (PBS) (Gibco), so as to obtain several samples for each vesicle preparation with an effective concentration of Gd-DTPA in the range 0.2-2 mmoles. Approximately 10 ml of each dilution was placed in 20 ml plastic syringes (Becton Dickinson), which were sealed with parafilm to prevent leakage and placed in a custom-built acrylic phantom holder which positioned the syringes with their long-axes horizontal within the bore of the magnet.\nPhantoms were imaged using a Siemens 1.5 Tesla Magnetom whole body scanner (Iselin, N.J.) using body coil. For T1 calculations, images were acquired using spin-echo sequences with a fixed TE of 17 msec and TR values of 100, 300, 450, 600, 900, 1200, 1800, 2500 and 3500 msec. Other parameters were 4 acquisitions, 256 x 256 matrix, 30 cm field of view and 10 mm slices."}, "Male Wistar rats": {"test_system": "Male Wistar rats", "test": "In vivo MR contrast enhancement of microemulsified liposomes at 0.5 Tesla, Example 9", "details": "control, dose of 0.1 mmoles/kg; Figure 5", "procedure": "All in vivo imaging was performed on a Toshiba MR-50A 0.5 Tesla whole body scanner. Scan parameters were TR = 400 msec TE = 15 msec, 5 mm slice, 1 mm interslice gap, 15 cm field of view with 4 acquisitions using a receive-only surface coil.\nMale Wistar rats were scanned in the supine position, and signal intensities of liver, kidney and paraspinal muscle as well as urine, were measured pre and post contrast, with post contrast intervals comprising 15 minutes, 1 hour, 4 hours, 24 hours and 48 hours.\nInjections of liposomes prepared as described above were made at concentrations of 0.1, 0.05 and 0.025 mM/kg, based on the weight of the rats, and were carried out by tail vein injection using a 26 gauge butterfly needle. The liposomes were injected over a period of approximately two minutes, and were first diluted with an equal volume of normal saline immediately prior to injection."}},
  "data": [
    {"substance": "gadolinium diethylenetriamine pentaacetic acid [Free Gd-DTPA]", "values": [
      {"measurement": "Liver + Muscle (ratio of liver enhancement to muscle enhancement)", "setting": "Male buffalo rats; Dose 0.109 mM/Kg", "value": -19.3, "unit": "%"},
      {"measurement": "Liver enhancement", "setting": "Male buffalo rats; Dose 0.109 mM/Kg", "value": 0.0, "unit": "%"},
      {"measurement": "Muscle enhancement (paraspinal muscle)", "setting": "Male buffalo rats; Dose 0.109 mM/Kg", "value": 22.4, "unit": "%"},
      {"measurement": "Liver + Muscle (ratio of liver enhancement to muscle enhancement)", "setting": "Male buffalo rats; Dose 0.218 mM/Kg", "value": 8.2, "unit": "%"},
      {"measurement": "Liver enhancement", "setting": "Male buffalo rats; Dose 0.218 mM/Kg", "value": 11.6, "unit": "%"},
      {"measurement": "Muscle enhancement (paraspinal muscle)", "setting": "Male buffalo rats; Dose 0.218 mM/Kg", "value": 3.1, "unit": "%"},
      {"measurement": "enhancement on scans after injection", "setting": "Male buffalo rats; two control animals, 0.1 and 0.2 millimoles/kg", "value": "enhancement of renal cortex, renal pelvis and urinary bladder, but no appreciable enhancement of liver or vascular structures"},
      {"measurement": "Accuracy Post", "setting": "Hepatic Metastases; Dose 0.2 mm/kg", "value": "0±0", "unit": "%"},
      {"measurement": "#Post (number of metastases detected on Post contrast scans)", "setting": "Hepatic Metastases; Dose 0.2 mm/kg", "value": "0±0", "unit": "isointense"},
      {"measurement": "Sensitivity Post", "setting": "Hepatic Metastases; Dose 0.2 mm/kg", "value": "0±0", "unit": "%"},
      {"measurement": "Accuracy Post", "setting": "Hepatic Metastases; Dose 0.5 mm/kg", "value": "40.0±23.5", "unit": "%"},
      {"measurement": "#Post (number of metastases detected on Post contrast scans)", "setting": "Hepatic Metastases; Dose 0.5 mm/kg", "value": "2.80±1.64"},
      {"measurement": "Sensitivity Post", "setting": "Hepatic Metastases; Dose 0.5 mm/kg", "value": "40.0±23.5", "unit": "%"},
      {"measurement": "lesion detection by the five radiologists", "setting": "Hepatic Metastases; post versus pre contrast, Mann-Whitney test", "value": "statistically significant reduction in lesion detection"},
      {"measurement": "Relaxivity", "setting": "[1]", "value": 2.79, "unit": "sec^-1 x mM^-1"},
      {"measurement": "enhancement on scans (tissue to muscle ratio)", "setting": "Male Wistar rats", "value": "no significant enhancement of the liver, kidney and urine"}
    ]}
  ]
}
